“And” between values parts separate entries of the source, which are not always exact repeats. Equal values may be shown once.
System: 192522-019-R-J2-PDC complex tumor spheroid viability
Assay: Anticancer human tumor 192522-019-R-J2-PDC patient-derived colon adenocarcinoma cell line growth inhibition [POLQ]
Settings: for viability, T/C: stronger effect = lower value
Procedure: Multicellular complex tumor spheroid response to Polymerase (POL) inhibitors (novobiocin, ART-558, RP6685) in combination with a variety of drugs and investigational agents in selected tumor cell lines
The POL inhibitors (novobiocin, ART-558, and RP6685) were evaluated both individually and in combination with standard of care and investigational anticancer small molecules within a complex spheroid model of solid tumors. . Complex spheroids include a stromal component modeled by human endothelial cells (HUVEC) and fibroblasts modeled by human mesenchymal stem cells (MSCs). The concentration ranges selected for each drug and investigational agent were based upon clinically achievable concentrations if the clinical Cmax of the agent was known.
Compounds. The drugs and investigational agents: novobiocin (NSC847541), ART-558 (NSC835418), RP-6685 (NSC848927), peposertib (NSC802822), ceralasertib (NSC780249), elimusertib (NSC800525), camonsertib (NSC841442), AZD-1390 (NSC803789), olaparib (NSC753686), talazoparib (NSC767125), rucaparib (NSC756644), sotorasib (NSC818433), MRTX-1133 (NSC836407), SN-38 (NSC673596), topotecan (NSC609699), epotoside (NSC141540), doxorubicin (NSC123127), gemcitabine (NSC613327), 5-fluorouracil (NSC19893), paclitaxel (NSC125973), vemurafenib (NSC761431), MSA-2 (NSC828583), SN-011 (NSC837082), adavosertib (NSC754352), prexasertib (NSC758257), carboplatin (NSC241240) and oxaliplatin (NSC266046), were obtained from the National Cancer Institute (NCI) Developmental Therapeutics Program Chemical Repository (21). The FDA-approved anticancer drug set is available from the Developmental Therapeutics Program at https://dtp.cancer.gov/organization/dscb/obtaining/. […] The stock solutions were prepared in dimethyl sulfoxide (DMSO, Sigma-Aldrich, St. Louis, MO, cat. D2650), except for the platinum compounds which were prepared in saline (Quality Biological, Gaithersburg, MD, cat. 114-055-101), at 800-fold the tested concentration and stored at -70 degrees C prior to their use. All drugs and investigational agents were tested over a range starting from a high concentration at or near the clinical Cmax and decreasing in half-log increments. If the clinical Cmax for an agent had not been determined, the highest concentration tested was 10 microM, except for SN-38, which was tested at a high concentration of 1 microM.
Cell Culture. All cells were maintained in an incubator at 37 degrees C and 5% CO2 with 95% humidity. The PDC lines were cultured according to standard operating procedures established by the NCI PDMR (https://pdmr.cancer.gov). Table 3 of the manuscript, lists the cell lines along with the number of the three cell types plated to form the mct-spheroids and media for tumor cell growth. After thawing, all PDC lines, except 997537-175-T-J1-PDC and 415267-285-R-J2-PDC, were cultured in Matrigel-coated flasks prepared with a working solution of 1X Ham's F-12 nutrient mix, without supplementation (Thermo Fisher Scientific, cat. 11765054), 100 U/mL penicillin-streptomycin (Thermo Fisher Scientific, cat. 15140122), and 2.5% Matrigel (Corning Inc., Corning, NY, cat. 354248) for the first three passages. The two PDC lines 997537-175-T-J1-PDC and 415267-285-R-J2-PDC were cultured on uncoated flasks. The 857933-349-R-J2-PDC line was cultured in 6C/Colon 1B media containing advanced DMEM/F-12 (Thermo Fisher Scientific, cat. 12634028), 10 mM HEPES (Thermo Fisher Scientific, cat. 15630080), 1X GlutaMAX supplement (Thermo Fisher Scientific, cat. 35050061), 0.1 mg/mL primocin (InvivoGen, San Diego, CA, cat. ant-pm-2), 10% defined fetal bovine serum, heat inactivated (HyClone Laboratories Inc., Logan, UT, cat. SH30070.03HI), 50% L-WRN conditioned media (ATCC, cat. CRL-3276), 1.25 mM N-Acetyl-L-cysteine (Sigma-Aldrich, cat. A9165), 10 mM nicotinamide (Sigma-Aldrich, cat. N0636), 1X B-27 supplement (Thermo Fisher Scientific, cat. 17504044), 1X N-2 supplement (Thermo Fisher Scientific, cat. […]
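Further: spheroids exposed to drugs for seven days before reading.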
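Wherever viability, T/C is given: 100% = DMSO vehicle control viability in luminescence.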

For `CC(=O)O[C@H]1C(=O)[C@@]2(C)[C@H]([C@H](OC(=O)c3ccccc3)[C@]3(O)C[C@H](OC(=O)[C@H](O)[C@@H](NC(=O)c4ccccc4)c4ccccc4)C(C)=C1C3(C)C)[C@]1(OC(C)=O)CO[C@@H]1C[C@@H]2O` + COC1C(OC(N)=O)C(O)C(Oc2ccc3c(O)c(NC(=O)c4ccc(O)c(CC=C(C)C)c4)c(=O)oc3c2C)OC1(C)C, the IC50 (curve of first compound, second compound 0.0316 µM) was > 3000 nM, the IC50 (curve of first compound, second compound 0.1 µM) was > 3000 nM and the IC50 (curve of first compound, second compound 0.316 µM) was > 3000 nM. For the same molecule, the IC50 (curve of first compound, second compound 1 µM) was > 3000 nM, the IC50 (curve of first compound, second compound 3.16 µM) was > 3000 nM and the IC50 (curve of first compound, second compound 10 µM) was > 3000 nM. It also gave a viability, T/C (second compound 0.0316 µM, first compound 0.00949 µM) of 94.2%, a viability, T/C (second compound 0.0316 µM, first compound 0.03 µM) of 72.8% and a viability, T/C (second compound 0.0316 µM, first compound 0.0949 µM) of 56.6%. For the same molecule, the viability, T/C (second compound 0.0316 µM, first compound 0.3 µM) was 55.9%, the viability, T/C (second compound 0.0316 µM, first compound 0.949 µM) was 55.2% and the viability, T/C (second compound 0.0316 µM, first compound 3 µM) was 48.5%. For the same molecule, the viability, T/C (second compound 0.1 µM, first compound 0.00949 µM) was 95.6%, the viability, T/C (second compound 0.1 µM, first compound 0.03 µM) was 74.7% and the viability, T/C (second compound 0.1 µM, first compound 0.0949 µM) was 59.5%. The viability, T/C (second compound 0.1 µM, first compound 0.3 µM) was 54.7%, the viability, T/C (second compound 0.1 µM, first compound 0.949 µM) was 51.6% and the viability, T/C (second compound 0.1 µM, first compound 3 µM) was 56.9%. It also gave a viability, T/C (second compound 0.316 µM, first compound 0.00949 µM) of 91.6%, a viability, T/C (second compound 0.316 µM, first compound 0.03 µM) of 78.1% and a viability, T/C (second compound 0.316 µM, first compound 0.0949 µM) of 59.6%. For the same molecule, the viability, T/C (second compound 0.316 µM, first compound 0.3 µM) was 61.9%, the viability, T/C (second compound 0.316 µM, first compound 0.949 µM) was 54.6% and the viability, T/C (second compound 0.316 µM, first compound 3 µM) was 52.4%. It also gave a viability, T/C (second compound 1 µM, first compound 0.00949 µM) of 102%, a viability, T/C (second compound 1 µM, first compound 0.03 µM) of 80.6% and a viability, T/C (second compound 1 µM, first compound 0.0949 µM) of 56.6%. The viability, T/C (second compound 1 µM, first compound 0.3 µM) was 52.7%, the viability, T/C (second compound 1 µM, first compound 0.949 µM) was 56.1% and the viability, T/C (second compound 1 µM, first compound 3 µM) was 54%. The viability, T/C (second compound 3.16 µM, first compound 0.00949 µM) was 99.1%, the viability, T/C (second compound 3.16 µM, first compound 0.03 µM) was 84.6% and the viability, T/C (second compound 3.16 µM, first compound 0.0949 µM) was 61.5%. The viability, T/C (second compound 3.16 µM, first compound 0.3 µM) was 55.8%, the viability, T/C (second compound 3.16 µM, first compound 0.949 µM) was 56.1% and the viability, T/C (second compound 3.16 µM, first compound 3 µM) was 59.7%. It also gave a viability, T/C (second compound 10 µM, first compound 0.00949 µM) of 102%, a viability, T/C (second compound 10 µM, first compound 0.03 µM) of 76.8% and a viability, T/C (second compound 10 µM, first compound 0.0949 µM) of 57.1%. It also gave a viability, T/C (second compound 10 µM, first compound 0.3 µM) of 55.4%, a viability, T/C (second compound 10 µM, first compound 0.949 µM) of 64% and a viability, T/C (second compound 10 µM, first compound 3 µM) of 63.1%.

In the case of `COc1cccc(OCCCN)c1-c1cc(Nc2cnc(C#N)cn2)n[nH]1`, the viability, T/C (compound 0.00316 µM) is reported as 96.6% and 99.2% and 101%, the viability, T/C (compound 0.0316 µM) is reported as 33% and 47.4% and 44% and the viability, T/C (compound 0.1 µM) is reported as 32.7% and 40.1% and 36.7%. For the same molecule, the viability, T/C (compound 0.316 µM) was 32.7% and 38.2% and 35.7%, the viability, T/C (compound 1 µM) was 28.8% and 37.6% and 34.5% and the IC50 (curve of compound) was 15.3 nM and 29.4 nM and 26.4 nM.

In the case of `CNCc1ccc(-c2[nH]c3cc(F)cc4c3c2CCNC4=O)cc1`, the viability, T/C (compound 0.0316 µM) is reported as 104% and 103% and 93%, the viability, T/C (compound 0.1 µM) is reported as 98.4% and 101% and 86% and the viability, T/C (compound 0.316 µM) is reported as 104% and 102% and 109%. The viability, T/C (compound 1 µM) was 107% and 120% and 102%, the viability, T/C (compound 3.16 µM) was 100% and 108% and 105% and the viability, T/C (compound 10 µM) was 96.8% and 103% and 92.1%. The IC50 (curve of compound) was > 10000 nM.

In the case of `COc1cc2cc(C(=O)CCC(=O)O)sc2cc1OC`, the viability, T/C (compound 0.0316 µM) is reported as 103% and 106% and 111%, the viability, T/C (compound 0.1 µM) is reported as 102% and 92.6% and 99.8% and the viability, T/C (compound 0.316 µM) is reported as 90.1% and 107% and 96.3%. The viability, T/C (compound 1 µM) was 96.8% and 99.9% and 102%, the viability, T/C (compound 3.16 µM) was 115% and 103% and 100% and the viability, T/C (compound 10 µM) was 100% and 98.1% and 91.6%. The IC50 (curve of compound) was > 10000 nM.

`CC(=O)O[C@H]1C(=O)[C@@]2(C)[C@H]([C@H](OC(=O)c3ccccc3)[C@]3(O)C[C@H](OC(=O)[C@H](O)[C@@H](NC(=O)c4ccccc4)c4ccccc4)C(C)=C1C3(C)C)[C@]1(OC(C)=O)CO[C@@H]1C[C@@H]2O` was tested, and the viability, T/C (compound 0.00949 µM) was 90.9% and 93% and 91.4%, the viability, T/C (compound 0.03 µM) was 61.5% and 61.7% and 71.9% and the viability, T/C (compound 0.0949 µM) was 56.5% and 58.9% and 54.1%. The viability, T/C (compound 0.3 µM) was 54.5% and 54.7% and 52.9%, the viability, T/C (compound 0.949 µM) was 54.3% and 56.4% and 57.7% and the viability, T/C (compound 3 µM) was 53% and 61.1% and 54.8%. The IC50 (curve of compound) was > 3000 nM.

With `CCc1c2c(nc3ccc(O)cc13)-c1cc3c(c(=O)n1C2)COC(=O)[C@]3(O)CC` the viability, T/C (compound 0.00316 µM) was 109% and 91.9% and 85.5%, the viability, T/C (compound 0.0316 µM) was 70.5% and 78% and 56.7% and the viability, T/C (compound 0.1 µM) was 56.5% and 58.4% and 51.8%. For the same molecule, the viability, T/C (compound 0.316 µM) was 44.4% and 42.9% and 32.3%, the viability, T/C (compound 1 µM) was 27.6% and 37.6% and 25.5% and the IC50 (curve of compound) was 128 nM and 200 nM and 50.2 nM.

For `O=c1[nH]cc(F)c(=O)[nH]1`, the viability, T/C (compound 0.0316 µM) was 92.8% and 104% and 97.2%, the viability, T/C (compound 0.1 µM) was 88.4% and 98% and 84.1% and the viability, T/C (compound 0.316 µM) was 81.6% and 85.3% and 79.5%. For the same molecule, the viability, T/C (compound 1 µM) was 79.2% and 93.5% and 73.6%, the viability, T/C (compound 3.16 µM) was 86.3% and 94.5% and 74.5% and the viability, T/C (compound 10 µM) was 76.5% and 86% and 63.1%. For the same molecule, the IC50 (curve of compound) was > 10000 nM.

Reference: PubChem BioAssay AID1963850 (Molecular Pharmacology Branch, DTP, NCI, 2024)
